Assay results from paper PMC2424174, “Suppression of Tumor Growth and Angiogenesis by a Specific Antagonist of the Cell-Surface Expressed Nucleolin” (PLoS ONE, 2008).

Assays:
HUVECs [1] = experiment: HUVEC migration assay (modified Boyden chamber); format: cell-based, human; conditions: VEGF165; 1 µM HB-19 or 0.1 µM mAb MS-3; 4 h, 37°C; two independent experiments
Experimental: (§1) Figure 6 Inhibition of in vitro and in vivo angiogenesis by HB-19. (A) HB-19 inhibits proliferation of HUVECs. Twenty-four hours after seeding HUVECs in 2% FBS, cells were stimulated by 0.25 nM VEGF165, in the absence or presence of 1 µM HB-19 or 0.1 µM anti-nucleolin mAb MS-3 as indicated. After 72 h, cell number was determined by crystal violet staining. The data are reported as the mean of triplicate samples. (B) HB-19 inhibits migration of HUVECs. Cell migration was studied using a modified Boyden chamber. Cells were incubated (4 h at 37°C) with VEGF165, HB-19, or anti-nucleolin mAb MS-3 as above. Cells that migrated through the pore to the lower filter surface were counted and are shown as number per microscopic field at ×100 magnification. […] Tubular network structures were quantified using phase contrast microscopy (×100). […] Quantification of endothelial cell invasion into the Matrigel was determined and is expressed as a mean of five fields per section from 3 Matrigel-plug sections per mouse. The results are expressed as the mean of five mice per group. […]
HUVEC migration assays were performed using a 24-well chemotaxis chamber (Transwell, Corning Costar, France). […] The cells that had migrated through the pores to the lower filter surface were counted in three random high power fields in each well (magnification 100×). […]

athymic nude mice = experiment: Toxicity observations in treated nude mice; conditions: HB-19, 3 times per week; data not shown
Swiss mice = experiment: Mouse Matrigel plug angiogenesis assay; format: in vivo; conditions: endothelial-cell infiltration, n = 5 mice
Experimental: as §1, with “magnification. The data are the mean of three independent high-power fields/well performed in duplicate in two independent experiments. […] Aortic endothelial (ABAE) cells in the absence or presence of 3 nM PTN, 0.5 nM VEGF165, and 3 nM FGF-2 were seeded on a three-dimensional collagen gel in complete medium.” for “magnification.”

HUVECs [2] = experiment: Proliferation of VEGF stimulated HUVECs; format: cell-based, human; conditions: 0.25 nM VEGF165; 1 µM HB-19 or 0.1 µM mAb MS-3; 72 h; mean of triplicate
Experimental: as §1, with “magnification. The data are the mean of three independent high-power fields/well performed in duplicate in two independent experiments. […] Aortic endothelial (ABAE) cells in the absence or presence of 3 nM PTN, 0.5 nM VEGF165, and 3 nM FGF-2 were seeded on a three-dimensional collagen gel in complete medium.” for “magnification.”

Q: “pseudo-tripeptide Lysψ(CH2N)-Pro-Arg coupled to a template (H2NLys-Lys-Lys-Gly-Pro-Lys-Glu-Lys-AhxCONH2) [HB-19, pseudopeptide presenting pentavalently the pseudo-tripeptide Lysψ(CH2N)-Pro-Arg coupled to a template]” was tested. Which “inhibition of HUVEC migration” value (HUVECs [1]) did it give?
A: inhibited dramatically both of these events down to levels comparable to that of unstimulated cells

Q: And the evidence of toxicity (athymic nude mice)?
A: nor induced any evidence of toxicity such as diarrhea, infection, weakness, or lethargy

Q: What about the “inhibition of PTN induced angiogenesis” value (Swiss mice; 1 µM HB-19, 5 nM PTN) of the same substance?
A: significantly inhibited the ex vivo angiogenesis

Q: What about the “inhibition of FGF-2 induced angiogenesis” value (Swiss mice; 1 µM HB-19, 10 nM FGF-2) of the same substance?
A: significantly inhibited the ex vivo angiogenesis

Q: What about the “inhibition of HUVEC proliferation” value (HUVECs [2]) of the same substance?
A: inhibited dramatically both of these events down to levels comparable to that of unstimulated cells
